US9206412B2, “Thioxothiazolidine inhibitors” (Colorado State University Research Foundation, priority 2012, dated 2015)
Read-outs that look alike come from different tables or passages of the source.

Legend:
[1] = biological target: T1, dengue virus capping enzyme (Dengue virus type 2, UniProt P29990); format: binding
T1 sequence (P29990 2492-2758): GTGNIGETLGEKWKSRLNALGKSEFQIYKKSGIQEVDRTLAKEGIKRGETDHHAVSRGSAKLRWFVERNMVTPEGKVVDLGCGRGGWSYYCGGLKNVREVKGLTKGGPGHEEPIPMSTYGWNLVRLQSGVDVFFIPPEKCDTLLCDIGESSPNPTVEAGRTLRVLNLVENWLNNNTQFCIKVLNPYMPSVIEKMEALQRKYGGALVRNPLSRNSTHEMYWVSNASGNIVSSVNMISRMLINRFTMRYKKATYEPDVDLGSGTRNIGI

[2] = system: BHK-pD2hRucPac cells; assay: Cell viability (CellTiter-Glo) in replicon assay; conditions: read-out: Replicon Assay_CC50_M; Table 2-1
[3] = biological target: T1, dengue virus capping enzyme; assay: biochemical; format: binding, dengue virus type 2 (strain 16681)
[4] = biological target: yellow fever virus capping enzyme (Yellow fever virus, UniProt P03314); assay: biochemical; format: binding, yellow fever virus (strain 17D)
Chain of yellow fever virus capping enzyme (P03314 2507-2774 limits assumed): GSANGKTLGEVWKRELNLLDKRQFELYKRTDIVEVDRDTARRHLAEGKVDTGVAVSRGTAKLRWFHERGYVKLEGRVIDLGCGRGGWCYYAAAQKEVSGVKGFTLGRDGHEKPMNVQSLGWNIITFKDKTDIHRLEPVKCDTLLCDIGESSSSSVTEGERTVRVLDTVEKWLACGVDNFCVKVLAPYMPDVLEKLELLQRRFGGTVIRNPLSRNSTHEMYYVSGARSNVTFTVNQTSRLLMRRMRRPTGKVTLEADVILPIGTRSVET

[5] = system: dengue type 2 virus subgenomic replicon (BHK-pD2hRucPac); assay: Antiviral (replicon) assay, Renilla luciferase; format: cell-based
[6] = Cell viability (CellTiter-Glo) in replicon assay; conditions: hamster, BHK-pD2hRucPac cells (dengue replicon cells)
[7] = biological target: dengue capping enzyme (Dengue virus type 2, UniProt P29990); assay: Guanylation inhibition assay
[8] = Table 2-1, read-out: Replicon Assay_EC50_M
[9] = Replicon Assay_CC50_M, Table 2-1
[10] = Replicon CC50, Table 3, 72 hours
[11] = Dengue virus, 72 h, read-out: Replicon EC50, Table 3, 72 hours
[12] = Dengue virus, read-out: Replicon Assay_EC50_M, Table 2-1

SMILES	CC50 [2] [µM]	Ki ([3]; read-out: FP_DEN_Ki_AVG_DEN_M) [µM]	Ki ([4]; read-out: FP_YF_KI_AVG_YF_M) [µM]	EC50 [5, 8] [µM]	other results
O=C(O)CN1C(=O)/C(=C\c2ccc(-c3ccc(Cl)cc3Cl)o2)SC1=S [2044-5240]					HTS Activity [1]: M (key: Weak (W)=50%-75% reduction in FP signal; Moderate (M)=76%-90% reduction; Strong (S)=>90% reduction)
O=C(CCCN1C(=O)/C(=C/c2ccc(F)cc2)SC1=S)Nc1cccc(C(=O)O)c1 [BG124]	56	14	18	80	
CCOc1ccc(N2C(=O)C(=Cc3ccccc3C(=O)O)SC2=S)cc1 [BG126]	51	17	19	52	
O=C1NC(=S)SC1=Cc1ccccc1OS(=O)(=O)c1ccc([N+](=O)[O-])cc1 [BG127]	40	5	6	109	
Cc1cccc(N2C(=O)/C(=C/c3ccc(C(=O)O)cc3)SC2=S)c1C [BG128]	42	11	13	45	
Cc1ccc(N2C(=O)/C(=C/c3ccccc3C(=O)O)SC2=S)c(C)c1 [BG130]	50	8	15	61	
O=C(CN1C(=O)/C(=C/c2ccccc2F)SC1=S)Nc1cccc(C(=O)O)c1 [BG131]	71	6	12	54	
O=C(CN1C(=O)/C(=C/c2ccccc2F)SC1=S)Nc1ccccc1C(=O)O [BG132]	50	3	3	114	
CC(C(=O)O)N1C(=O)C(=Cc2ccc(Cl)cc2Cl)SC1=S (centres unmarked) [BG133]	77	7	14	126	
CC(C)C(C(=O)O)N1C(=O)/C(=C/c2ccccc2Cl)SC1=S (centres unmarked) [BG134]	66	15	15	61	
Cc1cccc(/C=C2\SC(=S)N(CN3CCCCC3)C2=O)c1 [BG136]	49	16	27	41	
CC(=C1SC(=S)NC1=O)c1ccc(C)cc1 [BG137]	67	19	25	55	
O=C(O)C(Cc1ccccc1)N1C(=O)C(=CC=Cc2ccccc2)SC1=S (centres unmarked) [BG138]	33	3	4	32	
O=C(O)CCN1C(=O)C(=Cc2ccc(-c3ccccc3[N+](=O)[O-])o2)SC1=S [BG139]	56	5	7	51	
O=C(CN1C(=O)S/C(=C\c2ccccc2F)C1=O)Nc1ccccc1C(=O)O [BG142]	137	23	51	102	
O=C1NC(=O)C(=Cc2ccc(Br)cc2)S1 [BG143]	60	20	24	50	

SMILES	CC50 [2] [µM]	Ki ([3]; read-out: FP_DEN_Ki_AVG_DEN_M) [µM]	Ki ([4]; read-out: FP_YF_KI_AVG_YF_M) [µM]	EC50 [5, 8] [µM]	other results
COc1cc(/C=C2\SC(=O)N(Cc3ccc(F)cc3)C2=O)c(Br)cc1OCC(=O)O [BG163]	38	5	9	32	
CC(C)N1C(=O)SC(=Cc2ccccc2OCc2ccc(C(=O)O)cc2)C1=O [BG166]	33	7	14	28	
COc1ccc2nc(N3CCCCC3)c(C=C3SC(=S)NC3=O)cc2c1 [BG168]	12	2	2	13	
CCOc1cc(/C=C2\SC(=S)NC2=O)ccc1OS(=O)(=O)c1ccccc1[N+](=O)[O-] [BG169]	29	2	2	26	
Cc1cc(C)cc(-n2c(C)cc(/C=C3\SC(=O)NC3=O)c2C)c1 [BG172]	26	11	14	20	
CN1C(=O)S/C(=C\c2ccc(-c3ccc(C(=O)O)c(Cl)c3)o2)C1=O [BG175]	82	13	17	78	
CC(C)(C)c1cc(C=C2SC(=S)NC2=O)cc(C(C)(C)C)c1O [BG179]	20	2	1	15	
CC(C)c1ccc(/C=C2\SC(=S)N(CC(=O)O)C2=O)cc1 [BG182]	93	18	17	80	
COc1c(I)cc(I)cc1/C=C1\SC(=S)N(CC(=O)O)C1=O [BG308]	276	2	4	97	
O=C1NC(=S)SC1=Cc1cccc(Cl)c1Cl [BG333]	11	7	12	9	
COc1c(I)cc(I)cc1/C=C1\SC(=S)N(CC(=O)O)C1=O [BG-5]					HTS Activity [1]: S (key: Weak (W)=50%-75% reduction in FP signal; Moderate (M)=76%-90% reduction; Strong (S)=>90% reduction)
O=C(O)CN1C(=O)/C(=C/c2ccc(Oc3ccccc3)cc2)SC1=S [BG-115]					HTS Activity [1]: M (key: Weak (W)=50%-75% reduction in FP signal; Moderate (M)=76%-90% reduction; Strong (S)=>90% reduction)
O=C(O)CN1C(=O)/C(=C/c2ccc(OCc3ccccc3)cc2)SC1=S [BG-170]					HTS Activity [1]: W (key: Weak (W)=50%-75% reduction in FP signal; Moderate (M)=76%-90% reduction; Strong (S)=>90% reduction)
O=C(O)CCN1C(=O)/C(=C/c2cccc(Cl)c2Cl)SC1=S [BG-324]					CC50 at 72 h [6, 9]: 12 µM; CC50 at 72 h [6, 10]: 12 µM; Ki ([3]; FP_DEN_Ki_AVG_DEN_M): 10 µM; Ki ([3]; Ki (GTP displacement)): 9.9 µM; Ki ([4]; FP_YF_KI_AVG_YF_M): 16 µM; IC50 [7]: 155 µM; EC50 [5, 11]: 8.5 µM; EC50 [5, 12]: 9 µM
O=C(O)CCN1C(=O)/C(=C/c2ccc(Cl)cc2Cl)SC1=S [BG-330]					CC50 at 72 h [6, 9]: 11 µM; CC50 at 72 h [6, 10]: 12 µM; Ki ([3]; FP_DEN_Ki_AVG_DEN_M): 10 µM; Ki ([3]; Ki (GTP displacement)): 9.8 µM; Ki ([4]; FP_YF_KI_AVG_YF_M): 9 µM; IC50 [7]: 2.6 µM; EC50 [5, 11]: 8.7 µM; EC50 [5, 12]: 9 µM
NC(=O)c1ncn([C@@H]2O[C@H](CO)[C@@H](O)[C@H]2O)n1 [Ribavirin, reference compound]					CC50 at 72 h ([6]; Replicon CC50, text): 49 µM; EC50 ([5]; Dengue virus, 72 h, read-out: Replicon EC50, 72 hours): 12 µM
